Results on four test systems are retold here after the supplement of paper PMC10331698.

Common to all, as to experiment: level (log10 ratio to DMSO vehicle control); higher = higher biomarker level / cell amount than vehicle control
What all share (conditions): in DMSO

Compound in assay [1]: O=C(O)C(F)(F)C(F)(F)C(F)(F)F [Perfluorobutanoic acid]
The procedure:
(§1)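 BioMAP Diversity Plus panel of 12 human primary cell co-culture systems (3C, 4H, LPS, SAg, BT, BF4T, BE3C, CASM3C, HDF3CGF, KF3CT, MyoF, Mphg). Compounds were added 1 h before stimulation and left for 24 h (MyoF 48 h; BT 72 h for soluble read-outs or 6 d for IgG). Biomarkers were read by ELISA, cytotoxicity by SRB, PBMC viability and proliferation by Alamar Blue. Each well value was divided by the mean of 8 DMSO control wells on the same plate and log10 transformed; duplicate blinded samples were tested at 4 concentrations.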

Compound in assay [2]: O=C(O)C(F)(F)OC(F)(F)C(F)(F)OC(F)(F)F [Perfluoro-3,6-dioxaheptanoic acid]
The procedure: as §1

Compound in assay [3]: FC(F)(F)C(F)(F)C(F)(F)C(F)(F)C(F)(F)CCI [1-Iodo-1H,1H,2H,2H-perfluoroheptane]
The method, then: as §1

Compound in assay [4]: OCCC(F)(F)C(F)(F)C(F)(F)C(F)(F)C(F)(F)C(F)(F)F [6:2 Fluorotelomer alcohol]
The procedure:
as §1

Compound in assay [5]: O=C(O)C(F)(F)C(F)(F)F [Perfluoropropanoic acid]
The method, then:
as §1

Compound in assay [6]: FC(F)(F)C(F)(F)C(F)(F)C(F)(F)C(F)(F)C(F)(F)I [Perfluoro-1-iodohexane]
The procedure:
as §1

Compound in assay [7]: OCC(F)(F)OC(F)(F)C(F)(F)OC(F)(F)CO [1H,1H,8H,8H-Perfluoro-3,6-dioxaoctane-1,8-diol]
The procedure:
as §1

± gives the standard deviation of the averaged measurements.

Regarding lMphg:M-CSF, the “level (log10)” value was -0.023 ± 0.024 in assay [1] (6700 nM); -0.0005 ± 0.011 in assay [1] (20000 nM); 0.024 ± 0.031 in assay [1] (60000 nM); -0.011 ± 0.016 in assay [2] (6700 nM); 0.003 ± 0.013 in assay [2] (20000 nM); -0.0345 ± 0.029 in assay [2] (60000 nM). Besides, the “level (log10)” value in assay [3] (6700 nM) is -0.043 ± 0.03; in assay [3] (20000 nM), -0.0355 ± 0.012; in assay [3] (60000 nM), -0.007 ± 0.013; in assay [4] (6700 nM) it was -0.0245 ± 0.0021; in assay [4] (20000 nM), -0.0245 ± 0.013; in assay [5] (6700 nM), -0.014 ± 0.0085. For the same test system, the “level (log10)” value in assay [5] (20000 nM) was -0.0155 ± 0.00071; in assay [5] (60000 nM), 0.003 ± 0.017; in assay [6] (6700 nM), -0.0095 ± 0.0035; in assay [6] (20000 nM), -0.032 ± 0.016; in assay [6] (60000 nM) it was 0.0085 ± 0.026; in assay [7] (6700 nM), -0.011 ± 0.0071. Besides, the results for the “level (log10)” value in assay [7] (20000 nM) and in assay [7] (60000 nM) were -0.004 ± 0.0085 and -0.01 ± 0.0028, respectively.
With lMphg:SRB, the “level (log10)” value in assay [1] (6700 nM) is -0.012 ± 0.017; in assay [1] (20000 nM), -0.0235 ± 0.037; in assay [1] (60000 nM), 0.002 ± 0.031; in assay [2] (6700 nM), -0.0015 ± 0.0092; in assay [2] (20000 nM), 0.0025 ± 0.011; in assay [2] (60000 nM), -0.002 ± 0.016. In addition, the “level (log10)” value in assay [3] (6700 nM) is 0.006 ± 0.013; in assay [3] (20000 nM), -0.011 ± 0.0014; in assay [3] (60000 nM), -0.001 ± 0.0057; in assay [4] (6700 nM), -0.014 ± 0.017; in assay [4] (20000 nM), -0.0125 ± 0.0021; in assay [5] (6700 nM), -0.0065 ± 0.005. Moreover, the “level (log10)” value in assay [5] (20000 nM) was -0.0125 ± 0.0021; in assay [5] (60000 nM), -0.011 ± 0.016; in assay [6] (6700 nM) it was -0.0055 ± 0.00071; in assay [6] (20000 nM) it was -0.0025 ± 0.0035; in assay [6] (60000 nM), 0.0035 ± 0.0078; in assay [7] (6700 nM) it was -0.028 ± 0.021. Besides, the figures for the “level (log10)” value in assay [7] (20000 nM) and in assay [7] (60000 nM) were 0.015 and -0.0375 ± 0.0021, respectively.
Regarding lMphg:SRB-Mphg, the “level (log10)” value in assay [1] (6700 nM) was -0.059 ± 0.054; in assay [1] (20000 nM) it was -0.0275 ± 0.18; in assay [1] (60000 nM), 0.0175 ± 0.17; in assay [2] (6700 nM) it was -0.053 ± 0.0014; in assay [2] (20000 nM), -0.079 ± 0.13; in assay [2] (60000 nM), -0.076 ± 0.19. Further, the “level (log10)” value in assay [3] (6700 nM) is 0.004 ± 0.0028; in assay [3] (20000 nM), -0.0015 ± 0.0035; in assay [3] (60000 nM), 0.009 ± 0.013; in assay [4] (6700 nM), -0.0055 ± 0.0064; in assay [4] (20000 nM), -0.0255 ± 0.011; in assay [5] (6700 nM), -0.0375 ± 0.035. Further, the “level (log10)” value was -0.096 ± 0.057 in assay [5] (20000 nM); -0.0265 ± 0.1 in assay [5] (60000 nM); 0.002 ± 0.0057 in assay [6] (6700 nM); -0.006 ± 0.0028 in assay [6] (20000 nM); 0.0025 ± 0.029 in assay [6] (60000 nM); -0.015 ± 0.033 in assay [7] (6700 nM). Moreover, the “level (log10)” value in assay [7] (20000 nM) was 0.0175 ± 0.023; in assay [7] (60000 nM) it was 0.0455 ± 0.077.
For lMphg:sIL-10, the “level (log10)” value in assay [1] (6700 nM) is 0.034 ± 0.013; in assay [1] (20000 nM), -0.005 ± 0.03; in assay [1] (60000 nM), -0.02 ± 0.037; in assay [2] (6700 nM), -0.0215 ± 0.0035; in assay [2] (20000 nM), 0.0045 ± 0.012; in assay [2] (60000 nM), -0.108 ± 0.044. Besides, the “level (log10)” value was 0.003 ± 0.033 in assay [3] (6700 nM); 0.01 ± 0.017 in assay [3] (20000 nM); -0.114 ± 0.062 in assay [3] (60000 nM); -0.032 ± 0.02 in assay [4] (6700 nM); -0.143 ± 0.041 in assay [4] (20000 nM); -0.0045 ± 0.016 in assay [5] (6700 nM). Further, the “level (log10)” value in assay [5] (20000 nM) was 0.008 ± 0.0099; in assay [5] (60000 nM) it was -0.042 ± 0.024; in assay [6] (6700 nM), -0.0575 ± 0.1; in assay [6] (20000 nM), -0.048 ± 0.0042; in assay [6] (60000 nM) it was -0.047 ± 0.0057; in assay [7] (6700 nM) it was -0.0295 ± 0.022. Also, the “level (log10)” value in assay [7] (20000 nM) was -0.0355 ± 0.13; in assay [7] (60000 nM), 0.0065 ± 0.00071.
